Experimental data as given in ChEMBL document CHEMBL5352412, “Discovery of 1,2-diphenylethene derivatives as human DNA topoisomerase II catalytic inhibitors and antitumor agents” (Eur J Med Chem, 2022).
Activity calls are given as the source filed them. The rule behind the calls is not given here.

How the values were obtained:
[1] = molecular target: T1, DNA topoisomerase 2-alpha (Homo sapiens, UniProt P11388); assay: Inhibition of human topoisomerase 2-alpha using pBR322 DNA as substrate incubated for 30 mins in presence of 0.5 to 5 mM ATP (reference value: 3.4 microM)
T1 sequence (P11388 whole entry): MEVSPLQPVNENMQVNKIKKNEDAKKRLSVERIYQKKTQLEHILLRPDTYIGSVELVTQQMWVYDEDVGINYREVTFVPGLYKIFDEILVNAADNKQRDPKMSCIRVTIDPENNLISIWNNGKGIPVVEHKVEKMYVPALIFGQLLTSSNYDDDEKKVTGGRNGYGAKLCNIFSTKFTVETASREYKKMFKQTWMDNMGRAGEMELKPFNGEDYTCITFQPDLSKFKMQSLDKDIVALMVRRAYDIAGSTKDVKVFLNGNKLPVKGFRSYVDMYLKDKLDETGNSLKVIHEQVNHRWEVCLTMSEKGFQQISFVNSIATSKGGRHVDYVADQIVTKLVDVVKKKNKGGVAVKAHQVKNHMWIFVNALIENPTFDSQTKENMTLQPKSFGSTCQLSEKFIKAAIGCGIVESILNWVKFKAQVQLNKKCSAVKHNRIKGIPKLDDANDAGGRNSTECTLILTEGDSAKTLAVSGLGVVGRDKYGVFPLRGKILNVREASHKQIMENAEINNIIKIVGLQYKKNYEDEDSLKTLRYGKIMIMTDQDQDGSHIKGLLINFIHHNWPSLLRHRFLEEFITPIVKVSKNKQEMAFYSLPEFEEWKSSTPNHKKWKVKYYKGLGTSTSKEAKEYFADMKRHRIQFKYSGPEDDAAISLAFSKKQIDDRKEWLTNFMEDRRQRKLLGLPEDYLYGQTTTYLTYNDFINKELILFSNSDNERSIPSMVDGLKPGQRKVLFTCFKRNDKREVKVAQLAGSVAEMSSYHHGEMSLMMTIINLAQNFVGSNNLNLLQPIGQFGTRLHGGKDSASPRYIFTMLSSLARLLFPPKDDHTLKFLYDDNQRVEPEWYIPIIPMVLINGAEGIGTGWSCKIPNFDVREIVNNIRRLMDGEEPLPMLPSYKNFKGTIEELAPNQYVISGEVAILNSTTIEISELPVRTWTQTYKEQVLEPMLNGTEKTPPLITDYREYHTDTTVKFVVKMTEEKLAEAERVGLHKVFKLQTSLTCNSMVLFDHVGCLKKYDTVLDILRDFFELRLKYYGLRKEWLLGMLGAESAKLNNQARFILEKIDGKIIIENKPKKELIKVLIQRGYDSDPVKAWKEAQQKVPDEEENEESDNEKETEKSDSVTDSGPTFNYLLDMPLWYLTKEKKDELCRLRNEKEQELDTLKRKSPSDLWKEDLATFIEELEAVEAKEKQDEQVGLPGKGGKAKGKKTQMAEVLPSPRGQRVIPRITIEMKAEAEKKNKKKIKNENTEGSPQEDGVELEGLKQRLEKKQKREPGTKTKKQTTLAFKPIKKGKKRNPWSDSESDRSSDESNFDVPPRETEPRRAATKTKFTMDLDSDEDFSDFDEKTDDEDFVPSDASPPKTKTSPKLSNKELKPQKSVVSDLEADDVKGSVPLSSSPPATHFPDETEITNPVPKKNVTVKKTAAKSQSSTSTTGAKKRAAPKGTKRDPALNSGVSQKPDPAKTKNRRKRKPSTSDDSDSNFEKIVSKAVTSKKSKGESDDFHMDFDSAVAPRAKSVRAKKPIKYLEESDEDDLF

MDA-MB-231 = assay: Antiproliferative activity against human MDA-MB-231 cells incubated for 72 hrs by CCK8 assay; assay type: functional, cell-based; settings: Homo sapiens, MDA-MB-231, 72 h
[2] = molecular target: T1, DNA topoisomerase 2-alpha; assay: Inhibition of human topoisomerase 2-alpha assessed as reduction in relaxation of pBR322 DNA at 100 uM measured after 30 mins by agarose gel electrophoresis method relative to control
HCT-116 = assay: Antiproliferative activity against human HCT-116 cells incubated for 72 hrs by CCK8 assay; assay type: functional, cell-based; settings: HCT-116, 72 h
PC-3 = assay: Antiproliferative activity against human PC-3 cells incubated for 72 hrs by CCK8 assay; assay type: functional, cell-based; settings: PC-3, 72 h
[3] = Antiproliferative activity against human BEAS-2B cells incubated for 72 hrs by CCK8 assay; assay type: toxicity, cell-based
Homo sapiens [4] = species on record: Homo sapiens; assay: Selectivity index, ratio of IC50 for human CCL-226 cells to IC50 for human HeLa cells
Homo sapiens [5] = species on record: Homo sapiens; assay: Selectivity index, ratio of IC50 for human CCL-226 cells to IC50 for human HCT-116 cells
Homo sapiens [6] = species on record: Homo sapiens; assay: Selectivity index, ratio of IC50 for human CCL-226 cells to IC50 for human HepG2 cells
Homo sapiens [7] = species on record: Homo sapiens; assay: Selectivity index, ratio of IC50 for human CCL-226 cells to IC50 for human A549 cells
[8] = Selectivity index, ratio of IC50 for human BEAS-2B cells to IC50 for human HeLa cells; assay type: toxicity; settings: BEAS-2B cells versus HeLa cells, read-out: Ratio IC50
[9] = Selectivity index, ratio of IC50 for human BEAS-2B cells to IC50 for human HCT-116 cells; assay type: toxicity; settings: BEAS-2B cells versus HCT-116 cells, read-out: Ratio IC50
[10] = Selectivity index, ratio of IC50 for human BEAS-2B cells to IC50 for human MDA-MB-231 cells; assay type: toxicity; settings: BEAS-2B cells versus MDA-MB-231 cells, read-out: Ratio IC50
[11] = Selectivity index, ratio of IC50 for human BEAS-2B cells to IC50 for human A549 cells; assay type: toxicity; settings: BEAS-2B cells versus A549 cells, read-out: Ratio IC50
[12] = Selectivity index, ratio of IC50 for human HL-7702 cells to IC50 for human HeLa cells; assay type: toxicity; settings: HL-7702 cells versus HeLa cells, read-out: Ratio IC50
[13] = Selectivity index, ratio of IC50 for human HL-7702 cells to IC50 for human HCT-116 cells; assay type: toxicity; settings: HL-7702 cells versus HCT-116 cells, read-out: Ratio IC50
[14] = Selectivity index, ratio of IC50 for human HL-7702 cells to IC50 for human MDA-MB-231 cells; assay type: toxicity; settings: HL-7702 cells versus MDA-MB-231 cells, read-out: Ratio IC50
[15] = Selectivity index, ratio of IC50 for human HL-7702 cells to IC50 for human HepG2 cells; assay type: toxicity; settings: HL-7702 cells versus HepG2 cells, read-out: Ratio IC50
[16] = molecular target: T1, DNA topoisomerase 2-alpha; assay: Inhibition of human topoisomerase 2-alpha assessed as DNA intercalation at 100 to 200 uM using pBR322 DNA as substrate measured after 30 mins by agarose gel electrophoresis analysis; settings: dose 100-200 µM
A549 = assay: Antiproliferative activity against human A549 cells incubated for 72 hrs by CCK8 assay; assay type: functional, cell-based; settings: A549, 72 h
[17] = molecular target: T1, DNA topoisomerase 2-alpha; assay: Poison activity at human topoisomerase 2-alpha assessed as linear DNA formation at 100 to 200 microM; settings: dose 100-200 µM
[18] = molecular target: T1, DNA topoisomerase 2-alpha; assay: Inhibition of human topoisomerase 2-alpha using pBR322 DNA as substrate incubated for 1 hr in presence of ATP by malachite green phosphate method
[19] = molecular target: T1, DNA topoisomerase 2-alpha; assay: Inhibition of human topoisomerase 2-alpha assessed as reduction in VP-16 induced enzyme-DNA cleavage complex formation by measuring linear DNA production; settings: dose 10-100 µM
HepG2 [20] = assay: Induction of cell cycle arrest in human HepG2 cells assessed as accumulation of cells at G1 phase at 0.5 uM incubated for 24 hrs by PI staining based flow cytometry analysis (reference value: 54%); assay type: functional
HepG2 [21] = assay: Induction of cell cycle arrest in human HepG2 cells assessed as accumulation of cells at S phase at 0.5 uM incubated for 24 hrs by PI staining based flow cytometry analysis (reference value: 28.2%); assay type: functional
HepG2 [22] = assay: Induction of cell cycle arrest in human HepG2 cells assessed as accumulation of cells at G2/M phase at 0.5 uM incubated for 24 hrs by PI staining based flow cytometry analysis (reference value: 17.5%); assay type: functional
HepG2 [23] = assay: Induction of cell cycle arrest in human HepG2 cells assessed as accumulation of cells at G1 phase at 1 uM incubated for 24 hrs by PI staining based flow cytometry analysis (reference value: 54%); assay type: functional
HepG2 [24] = assay: Induction of cell cycle arrest in human HepG2 cells assessed as accumulation of cells at S phase at 1 uM incubated for 24 hrs by PI staining based flow cytometry analysis (reference value: 28.2%); assay type: functional
HepG2 [25] = assay: Induction of apoptosis in human HepG2 cells assessed as early apoptotic cells at 1 uM incubated for 24 hrs by annexin-V FITC and PI staining based flow cytometry analysis (reference value: 3.7%); assay type: functional
HepG2 [26] = assay: Induction of apoptosis in human HepG2 cells assessed as late apoptotic cells at 1 uM incubated for 24 hrs by annexin-V FITC and PI staining based flow cytometry analysis (reference value: 2.3%); assay type: functional
HepG2 [27] = assay: Induction of apoptosis in human HepG2 cells assessed as necrotic cells at 1 uM incubated for 24 hrs by annexin-V FITC and PI staining based flow cytometry analysis (reference value: 0.2%); assay type: functional
HepG2 [28] = assay: Induction of apoptosis in human HepG2 cells assessed as viable cells at 0.5 uM incubated for 24 hrs by annexin-V FITC and PI staining based flow cytometry analysis (reference value: 93.8%); assay type: functional; settings: read-out: Activity
HepG2 [29] = assay: Induction of apoptosis in human HepG2 cells assessed as early apoptotic cells at 0.5 uM incubated for 24 hrs by annexin-V FITC and PI staining based flow cytometry analysis (reference value: 3.7%); assay type: functional
HepG2 [30] = assay: Induction of apoptosis in human HepG2 cells assessed as late apoptotic cells at 0.5 uM incubated for 24 hrs by annexin-V FITC and PI staining based flow cytometry analysis (reference value: 2.3%); assay type: functional
HepG2 [31] = assay: Induction of apoptosis in human HepG2 cells assessed as necrotic cells at 0.5 uM incubated for 24 hrs by annexin-V FITC and PI staining based flow cytometry analysis (reference value: 0.2%); assay type: functional
[32] = molecular target: T1, DNA topoisomerase 2-alpha; assay: Inhibition of human topoisomerase 2-alpha assessed as reduction in relaxation of pBR322 DNA measured after 30 mins by agarose gel electrophoresis method
DNA topoisomerase 2-beta = DNA topoisomerase 2-beta (Homo sapiens, UniProt Q02880); assay: Inhibition of human topoisomerase 2-beta assessed as reduction in relaxation of pBR322 DNA measured after 30 mins by agarose gel electrophoresis method
Sequence of DNA topoisomerase 2-beta (Q02880 whole entry): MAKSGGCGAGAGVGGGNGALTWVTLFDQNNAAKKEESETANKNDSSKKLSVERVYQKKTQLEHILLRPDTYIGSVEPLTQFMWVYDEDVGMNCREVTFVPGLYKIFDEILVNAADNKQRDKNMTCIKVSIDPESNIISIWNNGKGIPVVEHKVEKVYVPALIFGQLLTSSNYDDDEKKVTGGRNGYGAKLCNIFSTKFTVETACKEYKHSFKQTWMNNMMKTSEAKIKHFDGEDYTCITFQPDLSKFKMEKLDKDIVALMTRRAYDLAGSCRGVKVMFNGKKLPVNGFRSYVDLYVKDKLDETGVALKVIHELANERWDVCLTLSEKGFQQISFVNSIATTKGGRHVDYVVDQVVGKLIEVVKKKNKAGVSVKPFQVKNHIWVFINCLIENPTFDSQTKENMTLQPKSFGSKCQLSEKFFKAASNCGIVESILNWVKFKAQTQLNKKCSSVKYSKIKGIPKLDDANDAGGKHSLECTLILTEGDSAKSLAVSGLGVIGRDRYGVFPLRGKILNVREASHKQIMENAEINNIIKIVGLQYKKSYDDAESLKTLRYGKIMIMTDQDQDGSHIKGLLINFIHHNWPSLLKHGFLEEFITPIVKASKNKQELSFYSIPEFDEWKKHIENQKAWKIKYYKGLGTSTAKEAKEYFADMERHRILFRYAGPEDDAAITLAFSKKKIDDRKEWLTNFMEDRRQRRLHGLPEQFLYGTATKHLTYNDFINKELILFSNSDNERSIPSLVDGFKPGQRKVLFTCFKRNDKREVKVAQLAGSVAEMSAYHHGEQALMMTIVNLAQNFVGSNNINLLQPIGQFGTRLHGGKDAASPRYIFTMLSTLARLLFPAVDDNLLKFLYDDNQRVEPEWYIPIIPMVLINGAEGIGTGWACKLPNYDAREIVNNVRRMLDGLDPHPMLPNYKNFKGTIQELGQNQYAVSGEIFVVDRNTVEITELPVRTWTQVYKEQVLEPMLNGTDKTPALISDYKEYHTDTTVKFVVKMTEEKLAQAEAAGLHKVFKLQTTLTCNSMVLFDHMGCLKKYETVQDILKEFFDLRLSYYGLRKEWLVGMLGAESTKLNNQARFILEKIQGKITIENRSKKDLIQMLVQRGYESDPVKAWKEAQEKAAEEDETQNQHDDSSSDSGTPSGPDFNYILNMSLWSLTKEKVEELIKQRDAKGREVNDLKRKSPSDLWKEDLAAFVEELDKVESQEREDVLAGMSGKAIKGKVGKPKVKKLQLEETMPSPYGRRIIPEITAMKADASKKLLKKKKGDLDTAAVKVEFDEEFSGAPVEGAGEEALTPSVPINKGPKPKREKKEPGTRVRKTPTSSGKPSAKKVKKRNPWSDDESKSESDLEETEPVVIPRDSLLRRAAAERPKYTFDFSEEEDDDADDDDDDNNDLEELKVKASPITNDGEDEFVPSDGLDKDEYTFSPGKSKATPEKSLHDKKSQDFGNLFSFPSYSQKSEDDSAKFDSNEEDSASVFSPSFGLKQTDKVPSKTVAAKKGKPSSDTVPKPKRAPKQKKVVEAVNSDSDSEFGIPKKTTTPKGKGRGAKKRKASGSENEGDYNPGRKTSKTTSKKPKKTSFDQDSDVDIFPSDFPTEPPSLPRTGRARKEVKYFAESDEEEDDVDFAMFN

Compound: O=C(CCc1ccccc1)Nc1ccc(-c2ccc3cc(O)ccc3c2)cc1
- IC50 [1]: 13.4 µM
- IC50 (MDA-MB-231): 200 nM
- inhibition [2]: 82.1%
- IC50 (HCT-116): 200 nM
- IC50 (PC-3): 300 nM
- IC50 at 72 h [3]: 31.9 µM
- Ratio IC50 (Homo sapiens [4]): > 52.1
- Ratio IC50 (Homo sapiens [5]): > 52.1
- Ratio IC50 (Homo sapiens [6]): > 52.1
- Ratio IC50 (Homo sapiens [7]): > 52.1
- selectivity ratio [8]: > 52.1
- selectivity ratio [9]: > 52.1
- selectivity ratio [10]: > 52.1
- selectivity ratio [11]: > 52.1
- selectivity ratio [12]: > 52.1
- selectivity ratio [13]: > 52.1
- selectivity ratio [14]: > 52.1
- selectivity ratio [15]: > 52.1
- inhibition [16]: inactive
- IC50 (A549): 300 nM
- Activity [17]: inactive
- inhibition [18]: Dose-Dependent Effect
- inhibition [19]: Dose-Dependent Effect
- Activity (HepG2 [20]): 19%
- Activity (HepG2 [21]): 32%
- Activity (HepG2 [22]): 48.9%
- Activity (HepG2 [23]): 3.3%
- Activity (HepG2 [24]): 11.2%
- Activity (HepG2 [25]): 24.5%
- Activity (HepG2 [26]): 46.1%
- Activity (HepG2 [27]): 0.3%
- viability at 0.5 µM (HepG2 [28]): 72.5%
- Activity (HepG2 [29]): 14%
- Activity (HepG2 [30]): 13.4%
- Activity (HepG2 [31]): 0.1%
- IC50 [32]: 3.8 µM
- IC50 (DNA topoisomerase 2-beta): 10.1 µM
